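Following 48 hours of exposure in 96-well plates, responses at five concentrations were used to interpolate endpoints linearly. Abbreviation: GI50, concentration required for 50% inhibition of growth.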 The source made the active and inactive calls. No stated cut-off is given here; in the data, active = GI50 up to about 1.1 µM and inactive = higher.
Assays:
Assay in all cases: NCI anticancer screen, dose series, 48 h
[1] = system: HOP-62
[2] = system: OVCAR-5
[3] = system: 786-0
[4] = system: RPMI-8226
[5] = system: EKVX
[6] = system: MDA-N
[7] = system: SF-268
[8] = system: MDA-MB-231
[9] = system: OVCAR-3
[10] = system: OVCAR-8
[11] = system: BT-549
[12] = system: DU-145
[13] = system: HL-60
[14] = system: OVCAR-4
[15] = system: CAKI-1
[16] = system: SNB-75
[17] = system: RXF 393
[18] = system: SF-539
[19] = system: T47D
[20] = system: Hs-578T
[21] = system: MOLT-4
[22] = system: Malme-3M
[23] = system: TK-10
[24] = system: HCC 2998
[25] = system: SN12C
[26] = system: HCT-116
[27] = system: SF-295
[28] = system: M14
[29] = system: UACC-62
[30] = system: NCI-H23
[31] = system: A498
[32] = system: CCRF-CEM
[33] = system: ACHN
[34] = system: SW-620
[35] = system: LOX IMVI
[36] = system: NCI-H226
[37] = system: HT-29
[38] = system: PC-3
[39] = system: SK-OV-3
[40] = system: NCI/ADR-RES
[41] = system: NCI-H460
[42] = system: COLO 205
[43] = system: UO-31
[44] = system: A549
[45] = system: KM12
[46] = system: IGROV-1
[47] = system: SR
[48] = system: HOP-92
[49] = system: K562
[50] = system: SNB-19
[51] = system: SK-MEL-28
[52] = system: HCT-15
[53] = system: MDA-MB-435
[54] = system: SK-MEL-2
[55] = system: MCF7
[56] = system: SK-MEL-5
[57] = system: UACC-257
[58] = system: NCI-H522
[59] = system: U-251
[60] = system: KM-20L2

`O=[N+]([O-])c1ccc(S(=O)(=O)Cc2ccccc2)c([N+](=O)[O-])c1` was tested, and the GI50 [1] was 2.9 µM (inactive), the GI50 [2] was 9.55 µM (inactive) and the GI50 [3] was 1.58 µM (inactive). The GI50 [4] was 1.4 µM (inactive), the GI50 [5] was 1.87 µM (inactive) and the GI50 [6] was 1.96 µM (inactive). The GI50 [7] was 3.16 µM (inactive), the GI50 [8] was 2.11 µM (inactive) and the GI50 [9] was 1.44 µM (inactive). For the same molecule, the GI50 [10] was 1.89 µM (inactive), the GI50 [11] was 2.1 µM (inactive) and the GI50 [12] was 3.63 µM (inactive). For the same molecule, the GI50 [13] was 1.91 µM (inactive), the GI50 [14] was 2.2 µM (inactive) and the GI50 [15] was 1.72 µM (inactive). The GI50 [16] was 7.48 µM (inactive), the GI50 [17] was 1.75 µM (inactive) and the GI50 [18] was 1.99 µM (inactive). The GI50 [19] was 1.35 µM (inactive), the GI50 [20] was 4.12 µM (inactive) and the GI50 [21] was 139 nM (active). For the same molecule, the GI50 [22] was 2.91 µM (inactive), the GI50 [23] was 1.88 µM (inactive) and the GI50 [24] was 7.43 µM (inactive). For the same molecule, the GI50 [25] was 1.91 µM (inactive), the GI50 [26] was 1.87 µM (inactive) and the GI50 [27] was 16.6 µM (inactive). The GI50 [28] was 1.87 µM (inactive), the GI50 [29] was 2.24 µM (inactive) and the GI50 [30] was 1.9 µM (inactive). The GI50 [31] was 15.6 µM (inactive), the GI50 [32] was 170 nM (active) and the GI50 [33] was 1.58 µM (inactive). The GI50 [34] was 1.51 µM (inactive), the GI50 [35] was 1.79 µM (inactive) and the GI50 [36] was 21.9 µM (inactive). The GI50 [37] was 2.18 µM (inactive), the GI50 [38] was 1.78 µM (inactive) and the GI50 [39] was 6.78 µM (inactive). The GI50 [40] was 3.21 µM (inactive), the GI50 [41] was 5.12 µM (inactive) and the GI50 [42] was 1.79 µM (inactive). The GI50 [43] was 1.58 µM (inactive), the GI50 [44] was 11.4 µM (inactive) and the GI50 [45] was 7.38 µM (inactive). The GI50 [46] was 2.6 µM (inactive), the GI50 [47] was 247 nM (active) and the GI50 [48] was 1.79 µM (inactive). For the same molecule, the GI50 [49] was 1.13 µM (inactive), the GI50 [50] was 17.6 µM (inactive) and the GI50 [51] was 4.06 µM (inactive). For the same molecule, the GI50 [52] was 1820 nM, the GI50 [53] was 1.75 µM (inactive) and the GI50 [54] was 2.82 µM (inactive). For the same molecule, the GI50 [55] was 1.87 µM (inactive), the GI50 [56] was 2.12 µM (inactive) and the GI50 [57] was 1.67 µM (inactive). For the same molecule, the GI50 [58] was 748 nM (active) and the GI50 [59] was 2.23 µM (inactive).

For `CC1(C)[C@@H]2C[C@H]1c1cnc(-c3ccccn3)cc1[C@H]2C(O)[C@@H]1c2cc(-c3ccccn3)ncc2[C@H]2C[C@@H]1C2(C)C` (stereo partly specified), the GI50 [1] was 0.073 µM (active), the GI50 [2] was 1.11 µM (active) and the GI50 [3] was 0.0451 µM (active). For the same molecule, the GI50 [4] was 0.0893 µM (active), the GI50 [5] was 0.165 µM (active) and the GI50 [6] was 0.627 µM (active). For the same molecule, the GI50 [7] was 0.126 µM (active), the GI50 [8] was 0.338 µM (active) and the GI50 [9] was 0.0281 µM (active). For the same molecule, the GI50 [10] was 0.124 µM (active), the GI50 [11] was 0.184 µM (active) and the GI50 [12] was 0.125 µM (active). For the same molecule, the GI50 [13] was 0.0212 µM (active), the GI50 [14] was 0.0618 µM (active) and the GI50 [15] was 0.106 µM (active). The GI50 [16] was 0.773 µM (active), the GI50 [17] was 0.198 µM (active) and the GI50 [18] was 0.214 µM (active). The GI50 [19] was 0.505 µM (active), the GI50 [20] was 6.93 µM (inactive) and the GI50 [21] was 28.5 nM (active). The GI50 [22] was 0.218 µM (active), the GI50 [23] was 2.14 µM (inactive) and the GI50 [24] was 0.993 µM (active). The GI50 [25] was 0.0547 µM (active), the GI50 [26] was 0.0374 µM (active) and the GI50 [27] was 0.0721 µM (active). For the same molecule, the GI50 [28] was 0.082 µM (active), the GI50 [29] was 0.247 µM (active) and the GI50 [30] was 0.189 µM (active). The GI50 [31] was 0.491 µM (active), the GI50 [32] was < 22.2 nM (active) and the GI50 [33] was 0.113 µM (active). For the same molecule, the GI50 [34] was 0.17 µM (active), the GI50 [35] was 0.0272 µM (active) and the GI50 [36] was < 0.0504 µM (active). The GI50 [37] was 0.112 µM (active), the GI50 [38] was 0.332 µM (active) and the GI50 [39] was 0.0867 µM (active). The GI50 [40] was 0.101 µM (active), the GI50 [41] was 0.0472 µM (active) and the GI50 [42] was 0.161 µM (active). The GI50 [43] was 0.0785 µM (active), the GI50 [44] was 0.154 µM (active) and the GI50 [45] was 0.769 µM (active). The GI50 [46] was 0.043 µM (active), the GI50 [47] was 30.9 nM (active) and the GI50 [48] was 0.322 µM (active). The GI50 [49] was 0.124 µM (active), the GI50 [50] was 0.301 µM (active) and the GI50 [51] was 0.47 µM (active). The GI50 [52] was 71.8 nM, the GI50 [53] was 1 µM (active) and the GI50 [54] was 0.428 µM (active). For the same molecule, the GI50 [55] was 0.0796 µM (active), the GI50 [56] was 0.0461 µM (active) and the GI50 [57] was 0.396 µM (active). The GI50 [58] was 142 nM (active) and the GI50 [59] was 0.0741 µM (active).

`O=C1NC(SSC2=NNC3(C(=O)N2)c2ccccc2-c2ccccc23)=NNC12c1ccccc1-c1ccccc12` was tested, and the GI50 [1] was > 10 µM (inactive), the GI50 [2] was > 10 µM (inactive) and the GI50 [3] was > 10 µM (inactive). The GI50 [4] was > 10 µM (inactive), the GI50 [5] was > 10 µM (inactive) and the GI50 [6] was > 10 µM (inactive). For the same molecule, the GI50 [7] was > 10 µM (inactive), the GI50 [8] was > 10 µM (inactive) and the GI50 [9] was > 10 µM (inactive). The GI50 [10] was > 10 µM (inactive), the GI50 [11] was > 10 µM (inactive) and the GI50 [12] was > 10 µM (inactive). For the same molecule, the GI50 [13] was > 10 µM (inactive), the GI50 [14] was > 10 µM (inactive) and the GI50 [15] was > 10 µM (inactive). The GI50 [16] was > 10 µM (inactive), the GI50 [17] was > 10 µM (inactive) and the GI50 [18] was > 10 µM (inactive). The GI50 [19] was > 10 µM (inactive), the GI50 [20] was > 10 µM (inactive) and the GI50 [21] was > 10000 nM (inactive). For the same molecule, the GI50 [22] was > 10 µM (inactive), the GI50 [23] was > 10 µM (inactive) and the GI50 [24] was > 10 µM (inactive). The GI50 [25] was > 10 µM (inactive), the GI50 [26] was > 10 µM (inactive) and the GI50 [27] was > 10 µM (inactive). For the same molecule, the GI50 [28] was > 10 µM (inactive), the GI50 [29] was > 10 µM (inactive) and the GI50 [30] was > 10 µM (inactive). The GI50 [31] was > 10 µM (inactive), the GI50 [32] was > 10000 nM (inactive) and the GI50 [33] was > 10 µM (inactive). For the same molecule, the GI50 [34] was > 10 µM (inactive), the GI50 [35] was > 10 µM (inactive) and the GI50 [36] was > 10 µM (inactive). The GI50 [37] was > 10 µM (inactive), the GI50 [38] was > 10 µM (inactive) and the GI50 [39] was > 10 µM (inactive). For the same molecule, the GI50 [40] was > 10 µM (inactive), the GI50 [41] was > 10 µM (inactive) and the GI50 [42] was > 10 µM (inactive). For the same molecule, the GI50 [43] was > 10 µM (inactive), the GI50 [44] was > 10 µM (inactive) and the GI50 [45] was > 10 µM (inactive). The GI50 [46] was > 10 µM (inactive), the GI50 [47] was > 10000 nM (inactive) and the GI50 [48] was > 10 µM (inactive). The GI50 [49] was > 10 µM (inactive), the GI50 [50] was > 10 µM (inactive) and the GI50 [51] was > 10 µM (inactive). For the same molecule, the GI50 [52] was greater than 10000 nM, the GI50 [53] was > 10 µM (inactive) and the GI50 [54] was > 10 µM (inactive). For the same molecule, the GI50 [55] was > 10 µM (inactive), the GI50 [56] was > 10 µM (inactive) and the GI50 [57] was > 10 µM (inactive). The GI50 [58] was > 10000 nM (inactive) and the GI50 [59] was > 10 µM (inactive).

With `COc1ccc(/C=C\c2cc(OC)c(OC)c(OC)c2)cc1O` [COMBRETASTATIN A4] the GI50 [2] was 0.34 µM (active), the GI50 [5] was 1.22 µM (inactive) and the GI50 [11] was > 10 µM (inactive). The GI50 [12] was 0.01 µM (active), the GI50 [19] was 41 µM (inactive) and the GI50 [20] was 0.583 µM (active). For the same molecule, the GI50 [23] was 0.204 µM (active), the GI50 [37] was 1.72 µM (inactive) and the GI50 [60] was 1.61 µM (inactive).

Reference: ChEMBL document CHEMBL1201862, “PubChem BioAssay data set” (2004)
